{"source": "patent US11708348B2", "about": "“Protease inhibitors for treatment of coronavirus infections” (The Scripps Research Institute, priority 2021, dated 2023)", "data": [{"system": "SARS-CoV-2 strain USA-WA1/2020", "assay": "microbe, parasite or virus in culture", "format": "cell-based", "conditions": "Severe acute respiratory syndrome coronavirus 2, HeLa-ACE2, 24 h, HeLa-ACE2 cells, SARS-CoV-2 infection, 24 h; bound printed in cell; read-out: EC50, uM (Hela)", "units": {"EC50": "µM"}, "values": [{"smiles": "CC1(C(=O)N2C[C@@H]3CCC[C@@H]3[C@H]2C(=O)N[C@@H](C[C@@H]2CCNC2=O)C(=O)COC(F)(F)F)CCCO1", "note": "(stereo partly drawn) [Compound 310, (1S,3aR,6aS)-2-(2-methyltetrahydrofuran-2-carbonyl)-N-((S)-3-oxo-1-((S)-2-oxopyrrolidin-3-yl)-4-(trifluoromethoxy)butan-2-yl)octahydro-cyclopenta[c]pyrrole-1-carboxamide]", "EC50": "> 1"}]}, {"system": "SARS-CoV-2 strain USA-WA1/2020", "assay": "microbe, parasite or virus in culture", "format": "cell-based", "conditions": "Severe acute respiratory syndrome coronavirus 2, HeLa-ACE2, 24 h, HeLa-ACE2 cells, SARS-CoV-2 infection, 24 h; class symbols; read-out: EC50, uM (Hela)", "units": {"EC50": "µM"}, "values": [{"smiles": "CC(C)C[C@H](NC(=O)C(=O)NC1CCCC(F)(F)C1)C(=O)N[C@@H](C[C@@H]1CCNC1=O)C(=O)COc1c(F)c(F)cc(F)c1F", "note": "(stereo partly drawn) [Compound 94, Nl-(3,3-difluorocyclohexyl)-N2-((S)-4-methyl-1-oxo-1-(((S)-3-oxo-1-((S)-2-oxopyrrolidin-3-yl)-4-(2,3,5,6-tetrafluorophenoxy)butan-2-yl)amino)pentan-2-yl)oxalamide]", "EC50": "0.05 to 0.2"}, {"smiles": "O=C(N[C@@H](Cc1ccccc1)C(=O)N[C@@H](C[C@@H]1CCNC1=O)C(=O)COc1c(F)c(F)cc(F)c1F)c1cc2cc(F)ccc2[nH]1", "note": "[Compound 14, 5-fluoro-N-((S)-1-oxo-1-(((S)-3-oxo-1-((S)-2-oxopyrrolidin-3-yl)-4-(2,3,5,6-tetrafluorophenoxy)butan-2-yl)amino)-3-phenylpropan-2-yl)-1H-indole-2-carboxamide]", "EC50": "0.05 to 0.2"}, {"smiles": "O=C(Nc1ccccc1Cc1ccccc1)C(=O)N[C@@H](CC1CCCCC1)C(=O)N[C@@H](C[C@@H]1CCNC1=O)C(=O)COc1c(F)c(F)cc(F)c1F", "note": "[Compound 111, N1-(2-benzylphenyl)-N2-((S)-3-cyclohexyl-1-oxo-1-(((S)-3-oxo-1-((S)-2-oxopyrrolidin-3-yl)-4-(2,3,5,6-tetrafluorophenoxy)butan-2-yl)amino)propan-2-yl)oxalamide]", "EC50": "0.05 to 0.2"}, {"smiles": "Cc1cc(Cl)ccc1NC(=O)C(=O)N[C@@H](CC(C)C)C(=O)N[C@@H](C[C@@H]1CCNC1=O)C(=O)COc1c(F)c(F)cc(F)c1F", "note": "[Compound 77, N1-(4-chloro-2-methylphenyl)-N2-((S)-4-methyl-1-oxo-1-(((S)-3-oxo-1-((S)-2-oxopyrrolidin-3-yl)-4-(2,3,5,6-tetrafluorophenoxy)butan-2-yl)amino)pentan-2-yl)oxalamide]", "EC50": "< 0.05"}, {"smiles": "CC(C)C[C@H](NC(=O)c1ccc2c(c1)OCO2)C(=O)N[C@@H](C[C@@H]1CCNC1=O)C(=O)COc1c(F)c(F)cc(F)c1F", "note": "[Compound 24, N-((S)-4-methyl-1-oxo-1-(((S)-3-oxo-1-((S)-2-oxopyrrolidin-3-yl)-4-(2,3,5,6-tetrafluorophenoxy)butan-2-yl)amino)pentan-2-yl)benzo[d][l,3]dioxole-5-carboxamide]", "EC50": "0.2 to 0.5"}, {"smiles": "CC(C)C[C@H](NC(=O)c1cc2cccnc2[nH]1)C(=O)N[C@@H](C[C@@H]1CCNC1=O)C(=O)COC(F)(F)F", "note": "[Compound 194, N-((S)-4-methyl-1-oxo-1-(((S)-3-oxo-1-((S)-2-oxopyrrolidin-3-yl)-4-(trifluoromethoxy)butan-2-yl)amino)pentan-2-yl)-1H-pyrrolo[2,3-b]pyridine-2-carboxamide]", "EC50": "< 0.05"}, {"smiles": "CC(C)C[C@H](NC(=O)/C=C/c1ccccc1)C(=O)N[C@@H](C[C@@H]1CCNC1=O)C(=O)COc1c(F)c(F)cc(F)c1F", "note": "[Compound 66, (S)-2-cinnamamido-4-methyl-N-((S)-3-oxo-1-((S)-2-oxopyrrolidin-3-yl)-4-(2,3,5,6-tetrafluorophenoxy)butan-2-yl)pentanamide]", "EC50": "0.05 to 0.2"}, {"smiles": "O=C1NCC[C@H]1C[C@H](NC(=O)[C@@H]1CC2(CC2)CN1C(=O)C(O)CCC(F)(F)F)C(=O)COC(F)(F)F", "note": "(stereo partly drawn) [Compound 395, (6S)-N-((S)-3-oxo-1-((S)-2-oxopyrrolidin-3-yl)-4-(trifluoromethoxy)butan-2-yl)-5-(5,5,5-trifluoro-2-hydroxypentanoyl)-5-azaspiro[2.4]heptane-6-carboxamide]", "EC50": "0.05 to 0.2"}, {"smiles": "CC(C)C[C@H](NC(=O)C(=O)NC1CCCCC1(F)F)C(=O)N[C@@H](C[C@@H]1CCNC1=O)C(=O)COC(F)(F)F", "note": "(stereo partly drawn) [Compound 169, N1-(2,2-difluorocyclohexyl)-N2-((S)-4-methyl-1-oxo-1-(((S)-3-oxo-1-((S)-2-oxopyrrolidin-3-yl)-4-(trifluoromethoxy)butan-2-yl)amino)pentan-2-yl)oxalamide]", "EC50": "< 0.05"}, {"smiles": "CC(C)C[C@H](NC(=O)CNc1ccccc1)C(=O)N[C@@H](C[C@@H]1CCNC1=O)C(=O)COc1c(F)c(F)cc(F)c1F", "note": "[Compound 40, (S)-4-methyl-N-((S)-3-oxo-1-((S)-2-oxopyrrolidin-3-yl)-4-(2,3,5,6-tetrafluorophenoxy)butan-2-yl)-2-(2-(phenylamino)-acetamido)pentanamide]", "EC50": "< 0.05"}, {"smiles": "Cc1ccccc1NC(=O)C(=O)N[C@@H](CC(C)C)C(=O)N[C@@H](C[C@@H]1CCNC1=O)C(=O)COC(F)(F)F", "note": "[Compound 206, N^1—((S)-4-methyl-1-oxo-1-(((S)-3-oxo-1-((S)-2-oxopyrrolidin-3-yl)-4-(trifluoromethoxy)butan-2-yl)amino)pentan-2-yl)-N^2-(o-tolyl)oxalamide]", "EC50": "< 0.05"}, {"smiles": "CC(C)C[C@H](NC(=O)OCC1CCCC1)C(=O)N[C@@H](C[C@@H]1CCNC1=O)C(=O)COc1c(F)c(F)cc(F)c1F", "note": "[Compound 137, cyclopentylmethyl ((S)-4-methyl-1-oxo-1-(((S)-3-oxo-1-((S)-2-oxopyrrolidin-3-yl)-4-(2,3,5,6-tetrafluorophenoxy)butan-2-yl)amino)pentan-2-yl)carbamate]", "EC50": "0.5 to 1"}, {"smiles": "COc1cccc(NC(=O)C(=O)N[C@@H](Cc2cccc(F)c2)C(=O)N[C@@H](C[C@@H]2CCNC2=O)C(=O)COC(F)(F)F)c1", "note": "[Compound 242, N1-((S)-3-(3-fluorophenyl)-1-oxo-1-(((S)-3-oxo-1-((S)-2-oxopyrrolidin-3-yl)-4-(trifluoromethoxy)butan-2-yl)amino)propan-2-yl)-N2-(3-methoxy-phenyl)oxalamide]", "EC50": "< 0.05"}, {"smiles": "CC(C)C(F)(F)C(NC(=O)C(=O)Nc1ccccc1F)C(=O)N[C@@H](C[C@@H]1CCNC1=O)C(=O)COc1c(F)c(F)cc(F)c1F", "note": "(stereo partly drawn) [Compound 76, N1-(3,3-difluoro-4-methyl-1-oxo-1-(((S)-3-oxo-1-((S)-2-oxopyrrolidin-3-yl)-4-(2,3,5,6-tetrafluorophenoxy)butan-2-yl)amino)pentan-2-yl)-N2-(2-fluorophenyl)oxalamide]", "EC50": "0.05 to 0.2"}]}, {"system": "SARS-CoV-2 strain USA-WA1/2020", "assay": "microbe, parasite or virus in culture", "format": "cell-based", "conditions": "Severe acute respiratory syndrome coronavirus 2, HeLa-ACE2, 24 h, HeLa-ACE2 cells, SARS-CoV-2 infection, 24 h; read-out: EC50, uM (Hela)", "units": {"EC50": "µM"}, "values": [{"smiles": "O=C1NCC[C@H]1C[C@H](NC(=O)[C@@H]1[C@H]2CCC[C@H]2CN1C(=O)c1noc2ccc(Cl)cc12)C(=O)COC(F)(F)F", "note": "[Compound 659, (1S,3aR,6aS)-2-(5-chlorobenzo[d]isoxazole-3-carbonyl)-N-((S)-3-oxo-1-((S)-2-oxopyrrolidin-3-yl)-4-(trifluoromethoxy)butan-2-yl)octahydrocyclopenta[c]pyrrole-1-carboxamide]", "EC50": "< 0.05"}, {"smiles": "CC(F)(F)CCC(=O)N1CC2(CC2)C[C@H]1C(=O)N[C@@H](C[C@@H]1CCNC1=O)C(=O)COC(F)(F)F", "note": "[Compound 678, (S)-5-(4,4-difluoropentanoyl)-N-((S)-3-oxo-1-((S)-2-oxopyrrolidin-3-yl)-4-(trifluoromethoxy)butan-2-yl)-5-azaspiro[2.4]heptane-6-carboxamide]", "EC50": "< 0.05"}, {"smiles": "O=C1NCC[C@H]1C[C@H](NC(=O)[C@@H]1CC2(CC2)CN1C(=O)C1(O)CCC(C(F)(F)F)CC1)C(=O)COC(F)(F)F", "note": "(stereo partly drawn) [Compound 649, (S)-5-(l-hydroxy-4-(trifluoromethyl)cyclohexane-1-carbonyl)-N-((S)-3-oxo-1-((S)-2-oxopyrrolidin-3-yl)-4-(trifluoromethoxy)butan-2-yl)-5-azaspiro[2.4]heptane-6-carboxamide]", "EC50": "0.05 to 0.2"}, {"smiles": "O=C(Nc1ccccc1OC(F)(F)F)C(=O)N1CC2(CC2)C[C@H]1C(=O)N[C@@H](C[C@@H]1CCNC1=O)C(=O)COC(F)(F)F", "note": "[Compound 610, (S)-N-((S)-3-oxo-1-((S)-2-oxopyrrolidin-3-yl)-4-(trifluoromethoxy)butan-2-yl)-5-(2-oxo-2-((2-(trifluoromethoxy)phenyl)amino)acetyl)-5-azaspiro[2.4]heptane-6-carboxamide]", "EC50": "< 0.05"}, {"smiles": "CC(C)CC(C)(C)C(=O)N1CC2(CC2)C[C@H]1C(=O)N[C@@H](C[C@@H]1CCNC1=O)C(=O)COC(F)(F)F", "note": "[Compound 625, (S)-N-((S)-3-oxo-1-((S)-2-oxopyrrolidin-3-yl)-4-(trifluoromethoxy)butan-2-yl)-5-(2,2,4-trimethylpentanoyl)-5-azaspiro[2.4]heptane-6-carboxamide]", "EC50": "< 0.05"}, {"smiles": "O=C1NCC[C@H]1C[C@H](NC(=O)[C@@H]1CC2(CC2)CN1C(=O)c1cc2cccc(Cl)c2[nH]1)C(=O)COC(F)(F)F", "note": "[Compound 663, (S)-5-(7-chloro-1H-indole-2-carbonyl)-N-((S)-3-oxo-1-((S)-2-oxopyrrolidin-3-yl)-4-(trifluoromethoxy)butan-2-yl)-5-azaspiro[2.4]heptane-6-carboxamide]", "EC50": "< 0.05"}, {"smiles": "COC1(C(=O)N2CC3(CC3)C[C@H]2C(=O)N[C@@H](C[C@@H]2CCNC2=O)C(=O)COC(F)(F)F)CCC(F)(F)CC1", "note": "[Compound 646, (S)-5-(4,4-difluoro-1-methoxycyclohexane-1-carbonyl)-N-((S)-3-oxo-1-((S)-2-oxopyrrolidin-3-yl)-4-(trifluoromethoxy)butan-2-yl)-5-azaspiro[2.4]heptane-6-carboxamide]", "EC50": "< 0.05"}]}, {"system": "SARS-CoV-2 strain USA-WA1/2020", "assay": "microbe, parasite or virus in culture", "format": "cell-based", "conditions": "read-out: EC50, uM (Hela)", "units": {"EC50": "µM"}, "values": [{"smiles": "O=C1NCC[C@H]1C[C@H](NC(=O)[C@@H]1[C@H]2CCC[C@H]2CN1C(=O)C1(NC(=O)C(F)(F)F)CCC1)C(=O)COC(F)(F)F", "note": "[Compound 274, (1S,3aR,6aS)-N-((S)-3-oxo-1-((S)-2-oxopyrrolidin-3-yl)-4-(trifluoromethoxy)butan-2-yl)-2-(l-(2,2,2-trifluoroacetamido)-cyclobutane-1-carbonyl)octahydro-cyclopenta[c]pyrrole-l-carboxamide]", "EC50": "0.2 to 0.5"}]}]}
